From ChEMBL document CHEMBL5506003, “Design and biological evaluation of dual tubulin/HDAC inhibitors based on millepachine for treatment of prostate cancer” (Eur J Med Chem, 2024)

Key:
MCF7 = assay: Cytotoxicity against human MCF7 cells incubated for 72 hrs by MTT assay; conditions: MCF7, 72 h
MDA-MB-231 = assay: Cytotoxicity against human MDA-MB-231 cells incubated for 72 hrs by MTT assay; assay type: functional, cell-based; conditions: MDA-MB-231, 72 h
U-251 = assay: Cytotoxicity against human U-251 cells incubated for 72 hrs by MTT assay; conditions: U-251, 72 h
PC-3 = assay: Cytotoxicity against human PC-3 cells incubated for 72 hrs by MTT assay; conditions: PC-3, 72 h
A549 = assay: Cytotoxicity against human A549 cells incubated for 72 hrs by MTT assay; conditions: A549, 72 h
Histone deacetylase 7 = target: T1, Histone deacetylase 7 (Homo sapiens, UniProt Q8WUI4); assay: Inhibition of HDAC7 in human HeLa nuclear extracts incubated for 30 mins by fluorescence based assay; assay type: cell-free
T1 sequence (Q8WUI4 whole entry): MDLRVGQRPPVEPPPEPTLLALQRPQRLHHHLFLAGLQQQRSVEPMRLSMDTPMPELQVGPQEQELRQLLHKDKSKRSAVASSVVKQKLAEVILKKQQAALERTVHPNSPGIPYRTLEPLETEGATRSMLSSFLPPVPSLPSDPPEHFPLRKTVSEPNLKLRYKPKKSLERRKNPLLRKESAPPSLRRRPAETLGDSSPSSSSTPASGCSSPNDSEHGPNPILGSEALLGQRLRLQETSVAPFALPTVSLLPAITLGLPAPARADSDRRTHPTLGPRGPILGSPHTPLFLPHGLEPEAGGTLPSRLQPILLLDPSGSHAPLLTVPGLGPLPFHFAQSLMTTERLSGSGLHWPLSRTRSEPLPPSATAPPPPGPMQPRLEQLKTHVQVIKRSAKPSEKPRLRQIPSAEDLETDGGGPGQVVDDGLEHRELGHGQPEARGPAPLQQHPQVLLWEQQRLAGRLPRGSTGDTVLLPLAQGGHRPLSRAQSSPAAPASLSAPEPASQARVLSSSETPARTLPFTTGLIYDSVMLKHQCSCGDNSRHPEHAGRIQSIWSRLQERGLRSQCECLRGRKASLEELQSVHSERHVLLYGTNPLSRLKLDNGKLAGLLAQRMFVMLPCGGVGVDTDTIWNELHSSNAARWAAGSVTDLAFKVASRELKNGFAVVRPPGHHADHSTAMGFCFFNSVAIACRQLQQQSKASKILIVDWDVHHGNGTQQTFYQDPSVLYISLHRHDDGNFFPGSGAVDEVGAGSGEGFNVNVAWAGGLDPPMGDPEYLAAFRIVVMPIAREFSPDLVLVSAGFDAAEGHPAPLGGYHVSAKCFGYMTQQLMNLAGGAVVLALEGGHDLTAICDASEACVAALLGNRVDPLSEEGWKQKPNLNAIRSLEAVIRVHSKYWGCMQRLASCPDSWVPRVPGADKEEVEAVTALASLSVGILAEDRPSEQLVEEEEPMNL

Histone deacetylase 1 = Histone deacetylase 1 (Homo sapiens, UniProt Q13547); assay: Inhibition of HDAC1 in human HeLa nuclear extracts incubated for 30 mins by fluorescence based assay; assay type: cell-free
Chain of Histone deacetylase 1 (Q13547 whole entry): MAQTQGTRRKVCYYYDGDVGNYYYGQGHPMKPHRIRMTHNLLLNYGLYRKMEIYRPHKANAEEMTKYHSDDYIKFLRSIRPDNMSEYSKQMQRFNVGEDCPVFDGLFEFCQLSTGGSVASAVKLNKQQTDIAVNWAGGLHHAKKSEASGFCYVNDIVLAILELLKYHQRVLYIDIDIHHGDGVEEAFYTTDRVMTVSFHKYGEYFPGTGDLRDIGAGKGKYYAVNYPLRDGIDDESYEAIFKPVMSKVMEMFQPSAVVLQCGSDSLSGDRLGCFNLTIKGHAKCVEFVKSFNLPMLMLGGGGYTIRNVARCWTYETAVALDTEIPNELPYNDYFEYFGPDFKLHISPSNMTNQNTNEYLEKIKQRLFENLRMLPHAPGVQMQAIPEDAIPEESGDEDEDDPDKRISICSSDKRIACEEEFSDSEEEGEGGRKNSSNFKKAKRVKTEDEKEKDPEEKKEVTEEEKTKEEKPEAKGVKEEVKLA

Histone deacetylase 2 = Histone deacetylase 2 (Homo sapiens, UniProt Q92769); assay: Inhibition of HDAC2 in human HeLa nuclear extracts incubated for 30 mins by fluorescence based assay; assay type: cell-based
Chain of Histone deacetylase 2 (Q92769 whole entry): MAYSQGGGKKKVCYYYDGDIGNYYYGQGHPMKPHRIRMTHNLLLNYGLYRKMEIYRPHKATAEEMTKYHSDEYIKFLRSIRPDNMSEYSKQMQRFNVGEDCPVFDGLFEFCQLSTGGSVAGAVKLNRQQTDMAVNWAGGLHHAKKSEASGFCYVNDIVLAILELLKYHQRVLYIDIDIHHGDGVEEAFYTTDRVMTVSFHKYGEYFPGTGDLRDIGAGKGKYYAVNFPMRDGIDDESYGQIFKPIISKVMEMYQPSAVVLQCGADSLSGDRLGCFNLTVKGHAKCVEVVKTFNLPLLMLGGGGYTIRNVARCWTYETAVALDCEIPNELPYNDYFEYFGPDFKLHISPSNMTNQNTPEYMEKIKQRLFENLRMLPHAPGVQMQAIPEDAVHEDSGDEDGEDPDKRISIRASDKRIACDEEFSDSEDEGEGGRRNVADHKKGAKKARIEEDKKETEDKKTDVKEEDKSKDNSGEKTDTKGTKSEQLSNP

[1] = target: T2, Protein deacetylase HDAC6 (Homo sapiens, UniProt Q9UBN7); assay: Inhibition of HDAC6 in human HeLa nuclear extracts incubated for 30 mins by fluorescence based assay; assay type: cell-free
T2 sequence (Q9UBN7 whole entry): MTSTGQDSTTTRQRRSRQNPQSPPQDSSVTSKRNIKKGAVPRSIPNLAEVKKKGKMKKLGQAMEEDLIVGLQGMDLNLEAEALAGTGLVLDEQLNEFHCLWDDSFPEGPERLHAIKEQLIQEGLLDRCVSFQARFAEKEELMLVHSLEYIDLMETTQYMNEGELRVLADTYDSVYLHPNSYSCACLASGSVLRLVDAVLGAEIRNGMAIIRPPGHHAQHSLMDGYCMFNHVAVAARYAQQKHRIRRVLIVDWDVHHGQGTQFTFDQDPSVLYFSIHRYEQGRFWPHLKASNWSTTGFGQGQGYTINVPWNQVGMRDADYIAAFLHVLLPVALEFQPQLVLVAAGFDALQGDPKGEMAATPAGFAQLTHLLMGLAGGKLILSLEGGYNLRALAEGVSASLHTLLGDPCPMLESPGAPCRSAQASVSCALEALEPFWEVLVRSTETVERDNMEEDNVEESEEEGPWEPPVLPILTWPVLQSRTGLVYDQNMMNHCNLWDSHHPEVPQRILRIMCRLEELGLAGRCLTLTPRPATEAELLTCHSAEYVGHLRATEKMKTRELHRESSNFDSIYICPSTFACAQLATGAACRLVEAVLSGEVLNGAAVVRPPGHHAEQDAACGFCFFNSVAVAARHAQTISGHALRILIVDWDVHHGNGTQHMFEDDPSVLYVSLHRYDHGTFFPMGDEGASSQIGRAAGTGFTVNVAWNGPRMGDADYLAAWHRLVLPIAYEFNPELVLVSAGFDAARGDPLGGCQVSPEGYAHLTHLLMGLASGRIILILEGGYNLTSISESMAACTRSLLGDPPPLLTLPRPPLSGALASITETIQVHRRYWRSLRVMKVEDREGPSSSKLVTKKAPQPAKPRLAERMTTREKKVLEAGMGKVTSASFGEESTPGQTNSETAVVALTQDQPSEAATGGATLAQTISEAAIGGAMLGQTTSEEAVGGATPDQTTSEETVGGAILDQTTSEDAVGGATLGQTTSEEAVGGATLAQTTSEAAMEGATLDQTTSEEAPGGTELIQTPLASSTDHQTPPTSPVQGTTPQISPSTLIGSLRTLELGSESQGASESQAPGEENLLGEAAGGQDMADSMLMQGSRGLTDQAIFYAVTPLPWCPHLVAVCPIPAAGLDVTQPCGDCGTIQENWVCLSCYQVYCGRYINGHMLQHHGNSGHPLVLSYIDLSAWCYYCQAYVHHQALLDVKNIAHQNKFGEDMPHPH

SMILES | IC50 (MCF7) | IC50 (MDA-MB-231) | IC50 (U-251) | IC50 (PC-3) | IC50 (A549) | IC50 (Histone deacetylase 7) | IC50 (Histone deacetylase 1) | IC50 (Histone deacetylase 2) | IC50 [1]
COc1ccc(/C=C/C(=O)c2ccc(OC)c3c2OC(C)(C)C=C3)cc1OCCCCCC(=O)Nc1ccccc1N | > 10 µM | > 10 µM | > 10 µM | 5.86 µM | > 10 µM | – | – | – | –
COc1ccc(/C=C/C(=O)c2ccc(OC)c3c2OC(C)(C)C=C3)cc1OCCCCCCC(=O)NO | 10 µM | > 10 µM | > 10 µM | > 10 µM | > 10 µM | – | – | – | –
COc1ccc(/C=C/C(=O)c2ccc(OC)c3c2OC(C)(C)C=C3)cc1NCCCCCCC(=O)Nc1ccccc1N | > 10 µM | > 10 µM | > 10 µM | 6.61 µM | > 10 µM | – | – | – | –
COc1ccc(/C=C/C(=O)c2ccc(OC)c3c2OC(C)(C)C=C3)cc1OCCCC(=O)Nc1ccccc1N | 9.47 µM | > 10 µM | 7.52 µM | > 10 µM | > 10 µM | – | – | – | –
COc1ccc(/C=C/C(=O)c2ccc(OC)c3c2OC(C)(C)C=C3)cc1NCC(=O)Nc1ccccc1N | 4.33 µM | 4.97 µM | 4.19 µM | 3.1 µM | 9.78 µM | – | – | – | –
COc1ccc(/C=C/C(=O)c2ccc(Br)c3c2OC(C)(C)C=C3)cc1NCC(=O)NO | 0.19 µM | 0.16 µM | 0.14 µM | 0.032 µM | 0.8 µM | 8.3 µM | 0.87 µM | 1.43 µM | 3.35 µM
COc1ccc(/C=C/C(=O)c2ccc(Cl)c3c2OC(C)(C)C=C3)cc1NCC(=O)NO | 0.48 µM | 0.5 µM | 0.25 µM | 0.052 µM | 1.67 µM | – | – | – | –
COc1ccc(/C=C/C(=O)c2ccc(OC)c3c2OC(C)(C)C=C3)cc1OCCCCC(=O)NO | > 10 µM | 4.69 µM | > 10 µM | 4.84 µM | 7.13 µM | – | – | – | –
COc1ccc(/C=C/C(=O)c2ccc(OC)c3c2OC(C)(C)C=C3)cc1OCCCCC(=O)Nc1ccccc1N | 8.49 µM | > 10 µM | > 10 µM | 6.44 µM | > 10 µM | – | – | – | –
COc1ccc(/C=C/C(=O)c2ccc(OC)c3c2OC(C)(C)C=C3)cc1OCC(=O)Nc1ccccc1N | 8.72 µM | > 10 µM | 7.6 µM | > 10 µM | > 10 µM | – | – | – | –
COc1ccc(/C=C/C(=O)c2ccc(OC)c3c2OC(C)(C)C=C3)cc1NCCCCCCC(=O)NO | > 10 µM | > 10 µM | > 10 µM | 7.23 µM | > 10 µM | – | – | – | –
COc1ccc(/C=C/C(=O)c2ccc(Cl)c3c2OC(C)(C)C=C3)cc1OCC(=O)Nc1ccccc1N | 9.14 µM | 3.45 µM | 9.23 µM | 4.69 µM | 7.72 µM | – | – | – | –
